Measurements published in publication PMC10041525, “New Dual Inhibitors of Bacterial Topoisomerases with Broad-Spectrum Antibacterial Activity and In Vivo Efficacy against Vancomycin-Intermediate Staphylococcus aureus” (Journal of Medicinal Chemistry, 2023).
Values joined by “and” are separate entries in the source; they are usually repeats but may differ in a detail not shown here. Identical values can stand only once. Like-named read-outs stand apart in the source and are kept apart here.

Legend:
topo IV from E. coli = target: T1, topo IV from E. coli (Escherichia coli, UniProt P20083); experiment: relaxation HTS plate assay; assay type: biochemical; settings: read-out: IC50
T1 construct: purchased Inspiralis
Procedure, shortened: (§1)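 E. coli gyrase tested by supercoiling and topo IV by relaxation in high-throughput plate format. IC50 from seven inhibitor concentrations; mean of three independent measurements.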

[1] = tested on: Enterococcus faecalis ATCC 29212; experiment: MIC broth microdilution (CLSI); assay type: cell-based, E. faecalis; settings: Enterococcus faecalis, ATCC29212; read-out: MIC
A. baumannii ATCC 17978 = experiment: MIC broth microdilution (CLSI); assay type: cell-based; settings: Acinetobacter baumannii, ATCC17978
Procedure, shortened: (§2)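 Cation-adjusted Mueller Hinton broth 2 microdilution, 5 × 10^4 cells per well in 100 μL, three parallel replicates, plates bagged to limit evaporation; growth read as OD600 after incubation.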

S. aureus ATCC 29213 = experiment: MIC broth microdilution (CLSI); assay type: cell-based; settings: Staphylococcus aureus, ATCC29213
Procedure, shortened: as §2

K. pneumoniae ATCC 10031 = experiment: MIC broth microdilution (CLSI); assay type: cell-based
Procedure, shortened: (§3)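 CLSI microdilution; cation-adj. MHBII; 5 × 10^4 cells/well, 100 μL; DMSO ≤0.64% (at 64 μg/mL); 37 °C, 150 rpm, 18 h; OD600 read; MIC = conc. with mean OD600 rise <1.5× background, n=3.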

[2] = tested on: S. aureus (MRSA) ATCC 43300; experiment: MIC broth microdilution (CLSI); assay type: cell-based; settings: Staphylococcus aureus
Procedure, shortened: as §3

[3] = tested on: S. aureus (VISA) ATCC 700699; experiment: MIC broth microdilution (CLSI); assay type: cell-based; settings: Staphylococcus aureus; read-out: MIC
Procedure, shortened: as §3

E. faecium ATCC 700221 = experiment: MIC broth microdilution (CLSI); assay type: cell-based; settings: Enterococcus faecium, ATCC700221; read-out: MIC
P. aeruginosa ATCC 27853 = experiment: MIC broth microdilution (CLSI); assay type: cell-based; settings: Pseudomonas aeruginosa, ATCC27853; read-out: MIC
Procedure, shortened: as §3

E. coli ATCC 25922 = experiment: MIC broth microdilution (CLSI); assay type: cell-based; settings: Escherichia coli, ATCC25922; read-out: MIC
Procedure, shortened: as §3

[4] = tested on: Enterobacter cloacae spp. cloacae ATCC 13047; experiment: MIC broth microdilution (CLSI); assay type: cell-based; settings: Enterobacter cloacae, ATCC13047; read-out: MIC
Procedure, shortened: as §3

DNA gyrase from E. coli = target: T2, DNA gyrase from E. coli (Escherichia coli, UniProt P0AES6); experiment: supercoiling HTS plate assay; assay type: biochemical; settings: IC50 [nM] E. coli DNA gyrase
T2 construct: purchased Inspiralis
Procedure, shortened: as §1

[5] = read-out: MIC [µg/mL] (A. baumannii ATCC 17978)
[6] = read-out: MIC [µg/mL](S. aureus ATCC 29213)
[7] = Klebsiella pneumoniae, ATCC10031, read-out: MIC
[8] = read-out: MIC [µg/mL](S. aureus MRSA ATCC4330)

T1 sequence (P0AFI2 whole entry): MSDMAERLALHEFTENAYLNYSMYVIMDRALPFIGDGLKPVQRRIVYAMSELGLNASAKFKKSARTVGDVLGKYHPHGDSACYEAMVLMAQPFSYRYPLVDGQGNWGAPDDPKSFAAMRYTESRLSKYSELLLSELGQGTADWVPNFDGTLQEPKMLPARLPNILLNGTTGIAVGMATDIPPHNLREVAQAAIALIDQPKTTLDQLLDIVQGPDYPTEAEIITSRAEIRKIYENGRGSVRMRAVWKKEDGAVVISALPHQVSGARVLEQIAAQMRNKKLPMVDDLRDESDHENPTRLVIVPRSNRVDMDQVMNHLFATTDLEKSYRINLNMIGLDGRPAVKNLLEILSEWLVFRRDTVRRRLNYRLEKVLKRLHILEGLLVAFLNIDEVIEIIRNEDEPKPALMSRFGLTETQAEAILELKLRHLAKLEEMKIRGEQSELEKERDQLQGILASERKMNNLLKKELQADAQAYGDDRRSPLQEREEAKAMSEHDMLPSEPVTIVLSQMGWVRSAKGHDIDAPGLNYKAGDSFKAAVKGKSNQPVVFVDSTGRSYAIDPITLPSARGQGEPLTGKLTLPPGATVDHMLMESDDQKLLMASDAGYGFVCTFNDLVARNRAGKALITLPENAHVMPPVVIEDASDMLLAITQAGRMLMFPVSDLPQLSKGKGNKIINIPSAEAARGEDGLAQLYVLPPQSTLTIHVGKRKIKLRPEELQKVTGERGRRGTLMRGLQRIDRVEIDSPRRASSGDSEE
T1 sequence (P20083 whole entry): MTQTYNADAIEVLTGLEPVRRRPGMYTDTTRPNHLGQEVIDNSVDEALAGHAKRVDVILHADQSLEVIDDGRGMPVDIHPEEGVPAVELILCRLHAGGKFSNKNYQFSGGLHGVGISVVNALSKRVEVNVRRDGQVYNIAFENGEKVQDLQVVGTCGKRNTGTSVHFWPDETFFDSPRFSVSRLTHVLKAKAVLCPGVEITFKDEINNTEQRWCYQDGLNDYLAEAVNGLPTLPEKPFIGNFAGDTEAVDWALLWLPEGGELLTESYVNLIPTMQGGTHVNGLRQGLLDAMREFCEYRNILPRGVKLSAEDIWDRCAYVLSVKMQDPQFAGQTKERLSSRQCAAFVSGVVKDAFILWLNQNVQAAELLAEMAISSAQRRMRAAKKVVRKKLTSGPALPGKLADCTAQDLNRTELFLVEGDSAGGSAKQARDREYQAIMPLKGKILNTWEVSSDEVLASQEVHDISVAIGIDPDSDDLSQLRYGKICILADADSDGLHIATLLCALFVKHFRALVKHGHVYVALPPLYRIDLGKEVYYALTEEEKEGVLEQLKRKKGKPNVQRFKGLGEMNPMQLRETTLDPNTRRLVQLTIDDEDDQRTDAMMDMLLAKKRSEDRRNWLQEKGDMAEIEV

Compound | IC50 (topo IV from E. coli) | MIC [1] [µg/mL] | MIC (A. baumannii ATCC 17978; read-out: MIC) [µg/mL] | MIC (A. baumannii ATCC 17978; [5]) [µg/mL] | MIC (S. aureus ATCC 29213; read-out: MIC) [µg/mL] | MIC (S. aureus ATCC 29213; [6]) [µg/mL] | MIC (K. pneumoniae ATCC 10031) [µg/mL] | MIC (K. pneumoniae ATCC 10031; [7]) [µg/mL] | MIC ([2]; read-out: MIC) [µg/mL] | MIC [2, 8] [µg/mL] | MIC [3] [µg/mL] | MIC (E. faecium ATCC 700221) [µg/mL] | MIC (P. aeruginosa ATCC 27853) [µg/mL] | MIC (E. coli ATCC 25922) [µg/mL] | MIC [4] [µg/mL] | IC50 (DNA gyrase from E. coli) [nM]
Cc1[nH]c(C(=O)Nc2nc3c(N4CCC(O)CC4)cc(C(=O)O)cc3s2)c(Cl)c1Cl [7p, 2-(3,4-Dichloro-5-methyl-1H-pyrrole-2-carboxamido)-4-(4-hydroxypiperidin-1-yl)benzo[d]thiazole-6-carboxylic Acid] | 140 ± 3 nM | < 0.0312 | > 64 | > 64 | 4 | 4 | 4 | 4 | 4 | 4 | 0.5 | < 0.0312 | > 64 | > 64 | > 64 | < 10
Cc1[nH]c(C(=O)Nc2nc3c(N4CCOCC4)cc(C(=O)O)cc3s2)cc1Cl [16a, 2-(4-Chloro-5-methyl-1H-pyrrole-2-carboxamido)-4-morpholinobenzo[d]thiazole-6-carboxylic Acid] | < 100 nM and 38 nM | 1 | > 64 | > 64 | 8 | 8 | 2 | 2 | 2 | 2 | 0.5 | 1 | 64 | > 64 | > 64 | 13 ± 5
